Laboratory results published in US5281738A, “bis[4-(2,6-di-alkyl)phenol]silane derivatives as antiatherosclerotic agents” (Merrell Dow Pharmaceuticals Inc., priority 1992, dated 1994).

Tested on: human LDL (LDL lipid peroxidation)
Assay: Inhibition of LDL lipid peroxidation (cupric sulfate-induced, thiobarbituric acid assay)
Type: biochemical
Settings: 250 μg human LDL, compound preincubated 30 min at 42 °C, cupric sulfate 12.5 μM final, 37 °C, 2.5 hours, read-out: ID50 (concentration of test compound required to inhibit 50% of LDL lipid peroxidation)
Method: The degree of inhibition of LDL lipid peroxidation was determined by the method of Yagi et al. [Vitamins 39, 105 (1968)].
A 0.5 mL solution containing 250 micrograms (μg) of human LDL was incubated with the test compound, in amounts varying from 0 to 30 μg, for 30 minutes at 42° C. To this mixture was added 1 mL of a cupric sulfate solution (final concentration 12.5 μM) and the mixture was incubated at 37° C. for 2.5 hours. The amount of peroxidation of LDL lipid was determined by the thiobarbituric acid assay. The concentration of test compound required to inhibit 50% of LDL lipid peroxidation (ID50) was determined.

`CC(C)(C)c1cc(SC[Si](C)(C)CSc2cc(C(C)(C)C)c(O)c(C(C)(C)C)c2)cc(C(C)(C)C)c1O` [Compound A, 4,4'-[(Dimethylsilylene)bis(methylenethio)]-bis[2,6-di-t-butyl]phenol] was tested, and the IC50 was 9.5 µM.
